The values below come from publication PMC12040169 (PLOS Biology, 2025).

The first data set is described as follows: in vitro. The settings on record: human, hela cells, % viability.
The viability is a read-out of living cells in per cent, often relative to untreated cells. For `O=C(Nc1cccnc1)C1c2ccccc2Oc2ccccc21` [CBK263129], the viability at 28.5 h, 10 µM worked out at 98.6%.

For the molecule `CCOC(=O)CN1C(c2ccccc2O)Nc2ccc(Br)cc2C1c1ccccc1` (stereo not drawn) [CBK263130], the viability at 28.5 h, 10 µM came to 90.5%. `COC(=O)CN1C(c2ccccc2O)Nc2ccc(Br)cc2C1c1ccccc1` (stereo not drawn) [CBK263133]: the viability at 28.5 h, 10 µM was determined as 91.1%.

Take `COC(=O)c1ccc(NC(=O)CCN2C(=O)c3cccc([N+](=O)[O-])c3C2=O)cc1` [CBK263137]: the viability at 28.5 h, 10 µM is 98.1%. `O=C(Nc1cccc(-c2nc3ncccc3o2)c1)c1ccc(OCc2ccccc2)cc1` [CBK263139]: the viability at 28.5 h, 10 µM is 102%. Turning to `COc1ccc(C2=Nc3ccc(Br)cc3C(c3ccccc3)N2CC(=O)NN)cc1` (stereo not drawn) [CBK263141], the viability at 28.5 h, 10 µM came out at 95.8%.

Turning to `CCn1c2ccccc2c2cc(CN3CCN(Cc4cccc(F)c4)CC3)ccc21` [CBK263143], the viability at 28.5 h, 10 µM was 90.5%. In the case of `NNc1nccc(Nc2ccccc2C(=O)O)n1` [CBK263145], the viability at 28.5 h, 10 µM turned out to be 95.9%.

For `O=C1CSC(c2cn(-c3ccccc3)nc2-c2ccc(Br)cc2)N1Cc1ccccc1` (stereo not drawn) [CBK263146], the viability at 28.5 h, 10 µM was 97.4%. In the case of `COc1ccc(CCNc2c3c(c(C#N)c4nc5ccccc5n24)CCC3)cc1OC` [CBK263147], the viability at 28.5 h, 10 µM was found to be 97.9%. Regarding `COC(=O)c1ccccc1NC(=O)COc1ccc(Br)c(C)c1` [CBK263152], the viability at 28.5 h, 10 µM came to 89.4%. Same read-out and setting: for `O=C(CC1Nc2ccccc2NC1=O)Nc1cccc(C(=O)O)c1` (stereo not drawn) [CBK263155] the value was 102%; for `COc1cc(CN2CCN(Cc3cccc([N+](=O)[O-])c3)CC2)cc(OC)c1` [CBK263156], 95%. As for `COc1ccc(-c2nnc(SCC(=O)NN)n2-c2ccccc2)cc1` [CBK263157], the viability at 28.5 h, 10 µM is 87.3%.

On to `C=C(C)Cn1c(SCC(=O)O)nnc1-c1ccc([N+](=O)[O-])cc1` [CBK263159], for which the viability at 28.5 h, 10 µM worked out at 89.8%. In the case of `COc1ccc(NC(=O)c2ccc3nsnc3c2)cc1` [CBK263160], the viability at 28.5 h, 10 µM turned out to be 92.6%.

For the molecule `CCn1c2ccccc2c2cc(CN3CCN(Cc4c[nH]c5ccccc45)CC3)ccc21` [CBK263167], the viability at 28.5 h, 10 µM was determined as 89.3%.

With `Cc1ccc(NC(=O)CCN2C(=O)c3cccc([N+](=O)[O-])c3C2=O)c(Br)c1` [CBK263172], the viability at 28.5 h, 10 µM came to 98%. For `O=C(CSc1nc2ccccc2n1Cc1ccccc1)N/N=C/c1ccco1` [CBK263174], the viability at 28.5 h, 10 µM was found to be 89.6%. Take `CC(=O)Oc1ccccc1C(=O)Oc1ccc2c(c1)c(C(C)=O)c(C)n2-c1ccccc1` [CBK263175]: the viability at 28.5 h, 10 µM is 89.2%. Same read-out and setting: for `CC1C(=O)N(c2ccc(Cl)c(Cl)c2)C(=N)N1c1nc(N(C)C)nc(N(C)C)n1` (stereo not drawn) [CBK263182] the value was 93.2%. For `Nn1cnn2c(SCC(=O)c3cccs3)nnc12` [CBK263184], the viability at 28.5 h, 10 µM is 105%. Still for that read-out and setting: for `N#C/C(=C/c1ccc(OCc2ccc(C(=O)O)cc2)cc1)C(=O)Nc1ccc(Cl)cc1` [CBK263187] the value was 98.2%. On the same count and under the same terms, the figure for `CCOc1cccc(NC(=O)/C(C#N)=C\c2cc(C)n(-c3ccc4c(c3)OCO4)c2C)c1` [CBK263191] is 85.9%; for `Nn1cnn2c(SCCSC3CCCCC3)nnc12` [CBK263192] it is 108%. For `O=C(CSc1nnc2c(n1)[nH]c1ccccc12)Nc1ccccc1[N+](=O)[O-]` [CBK263195], the viability at 28.5 h, 10 µM was found to be 100%. On to `Cc1[nH]c(=O)[nH]c1C(=O)CCCCC(=O)O` [CBK263197], for which the viability at 28.5 h, 10 µM is 94%.

In the case of `Cc1cc(-c2ccccc2)sc1C(=O)/C=C(\O)C(=O)O` [CBK263198], the viability at 28.5 h, 10 µM was 100%. Regarding `COc1ccc(C(=O)N/C(=C/c2ccc([N+](=O)[O-])cc2)c2nc3ccc(C(F)(F)F)cc3[nH]2)cc1OC` [CBK263199], the viability at 28.5 h, 10 µM stood at 104%. On to `O=[N+]([O-])c1ccc2c(c1)C(N1CCOCC1)/C(=C/C1(O)CCCCC1)O2` (stereo not drawn) [CBK263200], for which the viability at 28.5 h, 10 µM turned out to be 103%.

With `O=C(O)c1ccc(Br)c(S(=O)(=O)NCc2ccccc2)c1` [CBK263202], the viability at 28.5 h, 10 µM amounted to 90.8%.

`N#Cc1c(NC(=O)c2cc(S(=O)(=O)N3CCOCC3)c(Cl)cc2Cl)sc2c1CCCC2` [CBK263204]: the viability at 28.5 h, 10 µM worked out at 95.7%. On to `CCN(CC)S(=O)(=O)c1ccc(Cl)c(C(=O)Oc2cccc3cccnc23)c1` [CBK263205], for which the viability at 28.5 h, 10 µM came out at 118%. As for `O=C(c1coc2ccc(O)c(CN3CCCCC3)c12)C1CC1` [CBK263206C], the viability at 28.5 h, 10 µM was determined as 93.7%. Turning to `O=S(=O)(NCc1ccccc1)c1cc(S(=O)(=O)c2ccc(Cl)cc2)ccc1Cl` [CBK263207], the viability at 28.5 h, 10 µM was found to be 109%. As for `Cc1ccc(NC(=O)/C(C#N)=C/c2ccc(-c3ccccc3C(=O)O)o2)cc1Cl` [CBK263208], the viability at 28.5 h, 10 µM was 102%. On the same count and under the same terms, the figure for `COc1ccc(NS(=O)(=O)c2ccc(Cl)c(C(=O)Nc3ccccc3C(=O)O)c2)cc1` [CBK263209] is 104%. The same measure, in the same setting: for `O=C(Oc1cccc2cccnc12)c1cc(S(=O)(=O)N2CCOCC2)ccc1Cl` [CBK263210] the value was 91.3%; for `Cc1ccc(C(=O)Oc2cccc(NC(=O)c3ccco3)c2)cc1S(=O)(=O)N1CCOCC1` [CBK263211], 94.1%; for `Cc1ccc(C(=O)Nc2ccccc2C(=O)O)cc1S(=O)(=O)NCc1ccccc1` [CBK263212], 98.7%.

As for `Cc1cc(C)nc(SCC(=O)Nc2cccc(C(=O)O)c2)n1` [CBK263214], the viability at 28.5 h, 10 µM is 101%. Consider `Cc1ccc(-c2nnc(-c3cccc(S(=O)(=O)N4CCOCC4)c3)o2)cc1` [CBK263215], for which the viability at 28.5 h, 10 µM came to 112%. On the same count and under the same terms, the figure for `COc1ccc(Br)cc1/C=N/NC(=O)C1CC(c2ccccc2)(c2ccccc2)C1` [CBK263218] is 88.8%; for `CCOC(=O)c1c(NC(=O)CSc2nc3ccccc3s2)sc2c1CCC2` [CBK263220] it is 93%. Same read-out and setting: the figure for `COc1ccc(CCNC(=O)C(=O)Nc2ccc(C)c(C)c2)cc1` [CBK263222] is 91.1%; for `Cc1cc(C)nc(SCC(=O)Nc2ccc(C(=O)O)cc2)n1` [CBK263223] it is 97.8%; for `CCOC(=O)c1c(NC(=O)CN2CCCCC2)sc2c1CCCC2=O` [CBK263224] it is 112%.

`O=C(CSc1nc2ccccc2[nH]1)Nc1cccc(C(=O)O)c1` [CBK263225]: the viability at 28.5 h, 10 µM was found to be 105%. Consider `O=C(O)c1cccc(NC(=O)c2ccc(CSc3ccc(Br)cc3)cc2)c1` [CBK263226], for which the viability at 28.5 h, 10 µM was found to be 98.3%. Regarding `Cc1cc(S(=O)(=O)Nc2cccc(C(=O)O)c2)c(C)c(S(=O)(=O)c2ccccc2)c1` [CBK263227], the viability at 28.5 h, 10 µM stood at 88.3%.

`N#C/C(=C\c1ccc(C(=O)O)cc1)C(=O)NCC1CCCO1` (stereo not drawn) [CBK263228]: the viability at 28.5 h, 10 µM is 95%. Still for that read-out and setting: the figure for `COc1ccc(C2=NN(c3ccccc3)C(c3cn(-c4ccccc4)nc3-c3ccccc3)C2)cc1` (stereo not drawn) [CBK263230] is 88.9%.

The same data set, now with this note: human, hela cells, % viability, bulk resorufin, single well.
As for `O=C1NC(=S)NC(=O)C1=Cc1cn(-c2ccccc2)nc1-c1ccc(-c2ccc([N+](=O)[O-])cc2)o1` [CBK263149], the viability at 28.5 h, 10 µM came out at 107%. For `S=C(Nc1ccc2nc3c4ccccc4c4ccccc4c3nc2c1)N1CCOCC1` [CBK263153], the viability at 28.5 h, 10 µM amounted to 94.7%.
